# From ChEMBL document CHEMBL3853262 (Medchemcomm, 2016)
# Legend:
# Assay type in all cases: functional, cell-based
# [1] = test system: BXPC-3; test: Proapoptotic activity in human BxPC3 cells by annexin V-FITC/propidium iodide staining-based capillary cytometric method
# [2] = test system: ASPC1; test: Proapoptotic activity in human AsPC1 cells by annexin V-FITC/propidium iodide staining-based capillary cytometric method
# [3] = test system: BJ; test: Proapoptotic activity in human BJ cells by annexin V-FITC/propidium iodide staining-based capillary cytometric method
# [4] = test system: NTERA-2-cl-D1; test: Proapoptotic activity in human NT2/D1 cells by annexin V-FITC/propidium iodide staining-based capillary cytometric method
EC50 [1],EC50 [2],EC50 [4],SMILES,EC50 [3]
25 µM,19 µM,16 µM,Nc1nc(-c2cccc(NC(=O)c3cc4cc(Cl)ccc4[nH]3)c2)c[nH]1,20 µM
53 µM,52 µM,16 µM,COc1ccc2[nH]c(C(=O)Nc3cccc(-c4c[nH]c(N)n4)c3)cc2c1,31 µM
